Target: T1, human V1a receptor (Homo sapiens, UniProt P37288)
T1 construct: expressed in transfected cells; host or cells: HEK293 cells, transiently transfected; cell membranes
Assay: human V1a receptor binding (3H-Vasopressin SPA, membranes of transfected HEK293 cells)
Conditions: HEK293 cell membranes, Ki by Cheng-Prussoff equation, read-out: pKi hV1a (converted)
Experimental: The human V1a receptor was cloned by RT-PCR from total human liver RNA. The coding sequence was subcloned in an expression vector after sequencing to confirm the identity of the amplified sequence. […] Cell membranes were prepared from HEK293 cells transiently transfected with the expression vector and grown in 20 liter fermenters with the following protocol.
50 g of cells are resuspended in 30 ml freshly prepared ice cold Lysis buffer (50 mM HEPES, 1 mM EDTA, 10 mM MgCl2 adjusted to pH=7.4+complete cocktail of protease inhibitor (Roche Diagnostics)). Homogenized with Polytron for 1 min and sonicated on ice for 2×2 minutes at 80% intensity (Vibracell sonicator). The preparation is centrifuged 20 min at 500 g at 4° C., the pellet is discarded and the supernatant centrifuged 1 hour at 43′000 g at 4° C. (19,000 rpm). The pellet is resuspended in 12.5 ml Lysis buffer+12.5 ml Sucrose 20% and homogenized using a Polytron for 1-2 min. The protein concentration is determined by the Bradford method and aliquots are stored at −80° C. until use. For binding studies 60 mg Yttrium silicate SPA beads (Amersham) are mixed with an aliquot of membrane in binding buffer (50 mM Tris, 120 mM NaCl, 5 mM KCl, 2 mM CaCl2, 10 mM MgCl2) for 15 minutes with mixing. 50 μl of bead/membrane mixture is then added to each well of a 96 well plate, followed by 50 μl of 4 nM 3H-Vasopressin (American Radiolabeled Chemicals). For total binding measurement 100 μl of binding buffer are added to the respective wells, for non-specific binding 100 μl of […] cold vasopressin and for compound testing 100 μl of a serial dilution of each compound in 2% DMSO. The plate is incubated 1 h at room temperature, centrifuged 1 min at 1000 g and counted on a Packard Top-Count. Non-specific binding counts are subtracted from each well and data is normalized to the maximum specific binding set at 100%. To calculate an IC 50 the curve is fitted using a non-linear regression model (XLfit) and the Ki is calculated using the Cheng-Prussoff equation.

T1 sequence (P37288 whole entry): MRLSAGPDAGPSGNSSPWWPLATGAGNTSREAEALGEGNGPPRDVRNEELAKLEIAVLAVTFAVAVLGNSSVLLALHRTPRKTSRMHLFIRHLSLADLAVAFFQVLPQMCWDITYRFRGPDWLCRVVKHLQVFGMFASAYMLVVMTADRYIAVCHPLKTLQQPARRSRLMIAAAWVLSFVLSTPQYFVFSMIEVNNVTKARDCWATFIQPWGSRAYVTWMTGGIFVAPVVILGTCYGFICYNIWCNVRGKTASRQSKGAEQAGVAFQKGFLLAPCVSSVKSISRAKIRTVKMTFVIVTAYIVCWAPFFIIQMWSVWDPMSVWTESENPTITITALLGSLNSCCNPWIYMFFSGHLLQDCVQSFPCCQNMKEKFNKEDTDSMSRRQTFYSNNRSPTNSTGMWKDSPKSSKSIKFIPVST

| SMILES | Ki [nM] |
| --- | --- |
| CC(C)C[C@H]1CC[C@H](c2nnc3n2-c2ccc(Cl)cc2COC3)CC1 [Example 9, 8-Chloro-1-(4-isobutyl-cyclohexyl)-4H,6H-oxa-2,3,10b-triaza-benzo[e]azulene] | 25.7 |
| Clc1ccc2c(c1)COCc1nnc([C@H]3CC[C@H](c4noc5ccccc54)CC3)n1-2 [Example 2, 1-(4-Benzo[d]isoxazol-3-yl-cyclohexyl)-8-chloro-4H,6H-5-oxa-2,3,10b-triaza-benzo[e]azulene] | 7.41 |
| Clc1ccc2c(c1)COCc1nnc([C@H]3CC[C@H](c4nsc5ccccc54)CC3)n1-2 [Example 3, 1-(4-Benzo[d]isothiazol-3-yl-cyclohexyl)-8-chloro-4H,6H-5-oxa-2,3,10b-triaza-benzo[e]azulene] | 0.288 |
| Clc1ccc2c(c1)COCc1nnc([C@H]3CC[C@H](c4onc5c4CCCC5)CC3)n1-2 [Example 5, 8-Chloro-1-[4-(4,5,6,7-tetrahydro-benzo[c]isoxazol-3-yl)-cyclohexyl]-4H,6H-5-oxa-2,3,10b-triaza-benzo[e]azulene] | 15.5 |
| Fc1cccnc1[C@H]1CC[C@H](c2nnc3n2-c2ccc(Cl)cc2COC3)CC1 [Example 1] | 2.4 |
| Cc1cc([C@H]2CC[C@H](c3nnc4n3-c3ccc(Cl)cc3COC4)CC2)no1 [Example 4, 8-Chloro-1-[4-(5-methyl-isoxazol-3-yl)-cyclohexyl]-4H,6H-5-oxa-2,3,10b-triaza-benzo[e]azulene] | 3.98 |

The next lines start with the values.

| Ki [nM] | SMILES |
| --- | --- |
| 2.4 | FC(F)(C1CCCC1)[C@H]1CC[C@H](c2nnc3n2-c2ccc(Cl)cc2COC3)CC1 [Example 8, 8-Chloro-1-[4-(cyclopentyl-difluoro-methyl)-cyclohexyl]-4H,6H-5-oxa-2,3,10b-triaza-benzo[e]azulene] |
| 32.4 | Cc1nc([C@H]2CC[C@H](c3nnc4n3-c3ccc(Cl)cc3COC4)CC2)no1 [Example 7, 8-Chloro-1-[4-(5-methyl-[1,2,4]oxadiazol-3-yl)-cyclohexyl]-4H,6H-5-oxa-2,3,10b-triaza-benzo[e]azulene] |
| 4.9 | Clc1ccc2c(c1)COCc1nnc([C@H]3CC[C@H](c4n[nH]c5c4CCCC5)CC3)n1-2 [Example 6, 8-Chloro-1-[4-(4,5,6,7-tetrahydro-1H-indazol-3-yl)-cyclohexyl]-4H,6H-5-oxa-2,3,10b-triaza-benzo[e]azulene] |

Source: patent publication US9346824B2, “Cyclohexyl-4H,6H-5-oxa-2,3,10b-triaza-benzo[e]azulenes as V1a antagonists” (Hoffmann-La Roche Inc., priority 2011, dated 2016)
